Reference: patent US20030032662A1, “Micronized leflunomide” (priority 2000, published 2003)

Test: Particle size after micronizing in a micronizer
Assay type: physicochemical
Conditions: pure dry leflunomide micronized in a micronizer (Example 1)
Source text: Pure dry leflunomide was micronized in a micronizer. The result was micronized leflunomide of a particle size of less than 5 micrometer.

particle size: less than 5 micrometer
SMILES: Cc1oncc1C(=O)Nc1ccc(C(F)(F)F)cc1 [micronized leflunomide, N-(4′-trifluoromethylphenyl)-5-methylisoxazole-4-carboxamide]
